Patent publication US20060281680A1, “Methods and compositions for modulating vascular integrity” (GENENTECH, INC., priority 2005, published 2006)
Residue numbers refer to the chain shown, from its start. In names and notes the source's numbering stands.

B1: PlGF: VEGFR-1 selective ligand (protein, UniProt P49763 19-221, looked up)
Placenta growth factor: LPAVPPQQWALSAGNGSSEVEVVPFQEVWGRSYCRALERLVDVVSEYPSEVEHMFSPSCVSLLRCTGCCGDENLHCVPVETANVTMQLLKIRSGDRPSYVELTFSQHVRCECRHSPGRQSPDMPGDFRADAPSFLPPRRSLPMLFRMEWGCALTGSQSAVWPSSPVPEEIPRMHPGRNGKKQQRKPLREKMKPERCGDAVPRR
B2: VEGFR2-sel: KDR-selective VEGF mutant: VEGF D63S/G65M/L66R (protein)
chain: APMAEGGGQNHHEVVKFMDVYQRSYCHPIETLVDIFQEYPDEIEYIFKPSCVPLMRCGGCCNSEMRECVPTEESNITMQIMRIKPHQGQHIGEMSFLQHNKCECRPKKDRARQENPCGPCSERRKHLFVQDPQTCKCSCKNTDSRCKARQLELNERTCRCDKPRR
B3: VEGFR1-sel: Flt-selective VEGF mutant I43A/I46A/Q79A/I83 (protein)
chain: B2 chain with I43A, I46A, S63D, M65G, R66L, Q79A

Experiments:
Assay type in all cases: cell-based, human
DSCR1 [1] = assay: Western blot of DSCR1 after siRNA transfection of HUVECs
Method: Cells cultured in 10-cm dishes were washed twice in Tris (tris(hydroxymethyl)aminomethane)-buffered saline, and 0.6 mL RIPA buffer (10 mM PBS, 1% Nonidet P-40, 0.5% sodium deoxycholate, 0.1% sodium dodecyl sulfate [SDS], […] phenylmethylsulfonyl fluoride, 30 μg/mL aprotinin, 1 mM sodium orthovanadate), and protease inhibitors (Roche Pharmaceuticals, Gaithersburg, Md.) were added. Mouse monoclonal antibody (mAb) directed against human NFATc 1, c2, and c3 was purchased from Santa Cruz Biotechnology (Santa Cruz, Calif.). Affinity-purified goat polyclonal antibody against human E-selectin, vascular cell adhesion molecule-1 (VCAM-1), intercellular adhesion molecule-1 (ICAM-1), and Cox-2 was from BD Pharmingen. Total endothelial cell extract, polyacrylamide gel electrophoresis (PAGE), blotting, and immunodetection were performed according to the Santa Cruz Biotechnology protocol. A total of […] whole-cell extract was loaded on each lane of a 4% to 16% polyacrylamide gel. […] Cox-2 was analyzed with an anti-Cox2 mAb (RDI, 1:500) and TF with an anti-hTF mAb (clone 7G11) was generated at Genentech, and used at a 1:500 dilution. Before loading the samples on the gel, the protein amounts were quantified and adjusted accordingly. […]

[2] = test system: TF, VCAM-1, E-selectin, ICAM-1; assay: FACS analysis of inflammatory markers on GFP+ siRNA-transfected HUVECs
Method: For transient transfection experiments including siRNA, HUVECs were plated in 6-well plates as described for transient transfection experiments. For 6 replicas, 600 pmol siRNA (Dharmacon, Lafayette, Colo.), 7.5 μg luciferase, and 4 μg Renilla reporter construct were mixed in 6 mL high-glucose DMEM. For FACS and immunohistochemical (IHC) experiments, 11.5 μg enhanced green fluorescent protein (EGFP) plasmid was added instead of the luciferase plasmid. Prior to incubation at 37° C. for 25 to 30 minutes, 30 μL Targefect solution A and 60 μL Targefect solution B (Targeting Systems) were added to the mixture; 1 mL of this solution was used for lipofection as described. Cells were washed twice with PBS prior to addition of serum-free medium and dosing for the indicated amount of time.

NFAT = NFAT luciferase reporter gene assay in endothelial cells
Method: For HUVEC and human microvascular endothelial cell (HMVECs) transient transfections, cells (7.5×104) were plated per well of a 6-well dish in 3 mL growth medium (Primaria; BD Biosciences, Bedford, Mass.). The amounts of plasmid DNA used in the lipofection mixture were calculated for transfection of the total of 3 wells. Then, 1.25 μg expression vector, 3.75 μg luciferase reporter, and 2.0 μg SV-Renilla reference reporters were mixed and 14 μL F1 lipofectin reagent (Targeting Systems, Santee, Calif.) was added. Then, 4.5 mL high-glucose Dulbecco modified Eagle medium (DMEM) was added to the mixture. Transient transfection was conducted as recommended by the manufacturer. For reporter gene expression experiments, cells were lysed by using the Dual Luciferase Reporter Kit (Promega, San Luis Obispo, Calif.) in 300 μL of 1×passive lysis buffer following the recommendations of the manufacturer.
For transient transfection experiments including siRNA, HUVECs were plated in 6-well plates as described for transient transfection experiments. For 6 replicas, 600 pmol siRNA (Dharmacon, Lafayette, Colo.), 7.5 μg luciferase, and 4 μg Renilla reporter construct were mixed in 6 mL high-glucose DMEM. For FACS and immunohistochemical (IHC) experiments, 11.5 μg enhanced green fluorescent protein (EGFP) plasmid was added instead of the luciferase plasmid. […]

DSCR1 [3] = assay: DSCR1 expression analysis by real-time RT-PCR (TaqMan) in HUVECs; conditions: for DSCR1 mRNA levels: HUVECs, after 5.5 hours; for DSCR1 expression levels (real-time RT-PCR): serum-starved HUVECs, over 36 hours
From the text: (§1) Cells and cell assays. Primary human endothelial cells were purchased from Clonetics (Santa Rosa, Calif.) and cultured according to the manufacturer's instructions. For gene calling experiments, human umbilical vein endothelial cells (HUVECs) were purchased from Clonetics (BioWhittaker, Walkersville, Md.) and maintained in endothelial growth medium (EBM-2) complemented with 5% fetal calf serum (FCS) following the manufacturer's instructions. Cells (1×107) were split at a cell density of 19 000 cell/cm2 and triplicate experiments for each condition were run in parallel. Twenty-four hours after plating the cells, cell were washed 3 times with phosphate-buffered saline (PBS) and media (Clonetics) containing either 0.1% bovine serum albumin (BSA) or 0.1% BSA plus VEGF (30 ng/mL) or 5% FCS. RNA isolation and reverse transcription-PCR (RT-PCR) analysis was performed as described.^21 For cell culture experiments, the following conditions were used: human (h) VEGF, 30 ng/mL; hTNF-α, 10 ng/mL; PMA, 200 ng/mL (Calbiochem, LaJolla, Calif.); CsA, 1 μM (Calbiochem); IO 5 μM (Sigma, St Louis, Mo.); thapsigargin, 50 nM (Sigma). In one instance inhibiting (si) RNAs were generated by Dharmacon (Lafayette, Colo.) based on the full-length cDNAs of the respective gene and using the “Smart-pool” service (Dharmacon, Lafayette, Colo.). For adenoviral transduction survival experiments, human umbilical vein endothelial cells (HUVECs) were maintained in endothelial growth medium (EBM-2) complemented with 5% FCS following the manufacturer's instructions. 3×10^5 cells were split per well of a 6 well plate (Primaria, BD Biosciences, Bedford, Mass.) and duplicate experiments for each condition were run in parallel. Cells were infected with adenovirus (MOI=100) encoding for a gD peptide (Ad-Control), DSCR1 (Ad-DSCR1) or an antisense construct with the coding sequence inverted (Ad-DSCR1-AS) for 2 h in serum free media containing 10 mM […] and 10 nM MgCl2 on a vertical shaker at room temperature. Thereafter, 5 times the volume of regular growth medium containing 5% FCS was added and cells were kept for 1 day in a CO2 incubator. Thereafter, cells were washed three times with PBS and basal media (Clonetics, Santa Rosa, Calif.) containing 0.1 % BSA was added and PMA/IO, H202, and ZVAD as indicated. 24 hours after serum starvation and dosing, cell were counted on a Coulter brand style cell counter. For cell culture experiments, the following conditions were used: PMA: 200 ng/ml (Calbiochem, LaJolla, Calif.), Ionomycine: 5 μM (Sigma, St. Louis, Mo.), a 3% H202 solution was diluted 1:300 in basal media, 0.1% BSA to result in a 0.01% H202 solution, ZVAD 5 μM.

DSCR1 [4] = assay: Western blot of DSCR1 protein in whole cell extracts of HUVECs; conditions: 6 hours of stimulation
Method: Cells cultured in 10-cm dishes were washed twice in Tris (tris(hydroxymethyl)aminomethane)-buffered saline, and 0.6 mL RIPA buffer (10 mM PBS, 1% Nonidet P-40, 0.5% sodium deoxycholate, 0.1% sodium dodecyl sulfate [SDS], […] phenylmethylsulfonyl fluoride, 30 μg/mL aprotinin, 1 mM sodium orthovanadate), and protease inhibitors (Roche Pharmaceuticals, Gaithersburg, Md.) were added. Mouse monoclonal antibody (mAb) directed against human NFATc 1, c2, and c3 was purchased from Santa Cruz Biotechnology (Santa Cruz, Calif.). Affinity-purified goat polyclonal antibody against human E-selectin, vascular cell adhesion molecule-1 (VCAM-1), intercellular adhesion molecule-1 (ICAM-1), and Cox-2 was from BD Pharmingen. Total endothelial cell extract, polyacrylamide gel electrophoresis (PAGE), blotting, and immunodetection were performed according to the Santa Cruz Biotechnology protocol. A total of […] whole-cell extract was loaded on each lane of a 4% to 16% polyacrylamide gel. The enhanced chemiluminescence (ECL) reaction kit was purchased from Amersham Pharmacia Biotech (Piscataway, N.J.), and horseradish peroxidase streptavidin from Vector Laboratories (Burlingame, Calif.) was used. For NFATc1 experiments, equal amounts of cell extract were loaded to visualize NFATc1 (mAb 7A6; 1:500; Santa Cruz Biotechnology) and the loading control α-tubulin (mAb from ICN, Santa Ana, Calif.; 1:5000). For Cox-2 and TF immunoblot analysis equal amounts of cell lysate were loaded on a 6% to 12% gradient SDS-PAGE. Cox-2 was analyzed with an anti-Cox2 mAb (RDI, 1:500) and TF with an anti-hTF mAb (clone 7G11) was generated at Genentech, and used at a 1:500 dilution. Before loading the samples on the gel, the protein amounts were quantified and adjusted accordingly. As loading control, an anti-γ-adaptin mAb was used (1:1000) on a 4% to 20% polyacrylamide gel.
DSCR1 was PCR amplified with primers DSCR1-EcoRI-Pro 5′, adding an extra proline and DSCR1-Stop-XhoI 3′, by using DSCR1 cDNA as a template and cloned into pGEX-KG. GST-DSCR1 was expressed and purified essentially as described previously.^23 Polyclonal rabbit anti-GST-DSCR1 was prepared by immunization with recombinant GST-DSCR1. Filtered crude serum was used for Western blots (1:400).

Cox-2, E-selectin, TF = assay: Real-time RT-PCR of inflammatory marker / VEGF target genes in HUVECs; conditions: activated endothelial cells, 4 hours of incubation
From the text: as §1

DSCR1 [5] = assay: DSCR1 expression by real-time RT-PCR in HPAECs, HMVECs and HUAECs; conditions: HMVECs, HUAECs
From the text: Cells and cell assays. Primary human endothelial cells were purchased from Clonetics (Santa Rosa, Calif.) and cultured according to the manufacturer's instructions. For gene calling experiments, human umbilical vein endothelial cells (HUVECs) were purchased from Clonetics (BioWhittaker, Walkersville, Md.) and maintained in endothelial growth medium (EBM-2) complemented with 5% fetal calf serum (FCS) following the manufacturer's instructions. Cells (1×107) were split at a cell density of 19 000 cell/cm2 and triplicate experiments for each condition were run in parallel. Twenty-four hours after plating the cells, cell were washed 3 times with phosphate-buffered saline (PBS) and media (Clonetics) containing either 0.1% bovine serum albumin (BSA) or 0.1% BSA plus VEGF (30 ng/mL) or 5% FCS. RNA isolation and reverse transcription-PCR (RT-PCR) analysis was performed as described.^21 For cell culture experiments, the following conditions were used: human (h) VEGF, 30 ng/mL; hTNF-α, 10 ng/mL; PMA, 200 ng/mL (Calbiochem, LaJolla, Calif.); CsA, 1 μM (Calbiochem); IO 5 μM (Sigma, St Louis, Mo.); thapsigargin, 50 nM (Sigma). […] 24 hours after serum starvation and dosing, cell were counted on a Coulter brand style cell counter. […]

[6] = GFP+ activated endothelial cells

Molecule	DSCR1 mRNA levels (DSCR1 [3])	DSCR1 protein levels (DSCR1 [4])	DSCR1 expression levels (real-time RT-PCR) (DSCR1 [3])	further results
siDSCR1: siRNA to DSCR1 (NM_004414): pool of four in VEGF studies, AACGUAUGACAAGGACAUCAC in PMA/IO studies (one strand only stated, further chemistry not given here)	–	–	–	DSCR1 protein expression from cotransfected PRKN-DSCR1-FLAG (DSCR1 [1]; anti-Flag Western blot): complete absence; reduction in endogenous DSCR1 levels (DSCR1 [1]; rabbit polyclonal antiserum Western blot): 50% to 70%; ICAM-1 expression [2, 6]: not significantly affected; expression levels of TF, E-selectin and VCAM-1 [2, 6]: increase; magnitude of induction of inflammatory gene expression in VEGF-stimulated versus PMA/IO-stimulated cells ([2]; GFP+ endothelial cells): clearly below; increase in NFAT activity relative to siControl (NFAT; HUVECs in presence of IO/PMA): 2 fold; increase in NFAT activity relative to siControl (NFAT; HUVECs in presence of VEGF): 3 fold
C/C=C(/C)C(=O)O[C@H]1C(C)=C2[C@H]([C@@H]1OC(=O)CCCCCCC)[C@@](C)(OC(C)=O)C[C@H](OC(=O)CCC)[C@@]1(O)[C@H]2OC(=O)[C@@]1(C)O [thapsigargin, reference compound]	significantly increased	induction of DSCR1	–	induction of COX2, E-selectin and TF mRNA (Cox-2, E-selectin, TF): significant induction
TNF-α	significantly increased	unable to detect increased DSCR1 protein levels	–	–
b-FGF: basic fibroblast growth factor, R&D Systems	–	no significant increase	did not alter DSCR1 levels significantly	–
ionomycine [reference compound]	significantly increased	–	–	–
B1	–	–	failed to induce alterations in DSCR1 expression	–
B2	–	–	equally potent to VEGF	DSCR1 expression (real-time RT-PCR) (DSCR1 [5]): increased levels of DSCR1 expression
B3	–	–	failed to induce alterations in DSCR1 expression	–
